Columns and labels:
olfactory receptor OR4S2 [1] = target: T1, olfactory receptor OR4S2 (Homo sapiens, UniProt Q8NH73); experiment: Luciferase reporter gene assay: response of olfactory receptor to sulfur compounds; format: cell-based; settings: for response of olfactory receptor OR4S2 to polysulfide compound (fold increase): 100 μM polysulfide compound, 428 olfactory receptors measured, HEK293 cells, FIG. 1; for response of OR4S2 at different concentrations: HEK293 cells expressing OR4S2, FIG. 2
T1 construct: Flag-Rho tag (N); expressed in transfected cells; host or cells: HEK293
T1 sequence (Q8NH73 1-311): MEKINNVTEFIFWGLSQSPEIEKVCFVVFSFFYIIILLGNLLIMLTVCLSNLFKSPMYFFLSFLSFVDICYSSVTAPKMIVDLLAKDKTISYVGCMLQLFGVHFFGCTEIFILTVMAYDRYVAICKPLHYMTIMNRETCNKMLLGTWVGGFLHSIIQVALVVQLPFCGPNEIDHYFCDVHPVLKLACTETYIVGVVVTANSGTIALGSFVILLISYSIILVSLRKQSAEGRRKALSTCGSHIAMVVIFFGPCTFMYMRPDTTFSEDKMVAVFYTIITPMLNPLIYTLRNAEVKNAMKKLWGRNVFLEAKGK
Source text: A human olfactory receptor cloned using the PCR method with human genomic DNA (G1521:Promega Corporation) as a template on the basis of sequence information registered in GenBank. Each gene amplified through the PCR method was incorporated into a pENTR vector (Invitrogen) in accordance with the manual, and recombined, by utilizing the NotI and AscI sites present in the pENTR vector, with a pME18S vector at the NotI and AscI sites produced in the downstream of he Flag-Rho tag sequence of the pME18S vector. • (2) Preparation of pME18S-human RTP1S Vector
A vector expressing receptor-transporting protein (RTP), a protein which promotes the expression of an olfactory receptor polypeptide on the cell membrane, was prepared. Specifically, a gene encoding human RTP1S (GI: 50234917) was incorporated into a pME18S vector at the EcoRI and XhoI sites thereof. • (3) Preparation of Olfactory Receptor-expressing Cells
HEK293 cells expressing any one of human olfactory receptors were produced. A reaction solution with a composition shown in Table 2 was prepared and left to stand in a clean bench for 15 minutes, and then added to each well of a 96-well plate (BD Biosciences). Subsequently, 90 μL of HEK293 cells (3×10^5 cells/cm^2) was seeded in each well, and cultured in an incubator retained at 37° C. and 5% CO2 for 24 hours. As a control, cells with conditions for no expression of an olfactory receptor (Mock) were prepared and used in an experiment.
An olfactory receptor expressed on HEK293 cells increases the intracellular cAMP level through conjugation with the intracellular Gas followed by resulting activation of adenylate cyclase. For smell response measurement in this study, luciferase reporter gene assay was used in which increase of the intracellular cAMP level is monitored as an emission value derived from a firefly luciferase gene (fluc2P-CRE-hygro). Transgenesis was simultaneously performed by using a product with a sea pansy luciferase gene fused to the downstream of the CMV promoter (hRluc-CMV), and the resultant was used as an internal standard to correct errors of transgenesis efficiency and the number of cells.
The medium was removed from the culture prepared in the above(3), and 75 μL of a solution containing a polysulfide compound prepared with DMEM (NACALAI TESQUE, INC.) was added. The polysulfide compound was 100 μM of dimethyl disulfide (DMDS) or dimethyl trisulfide (DMTS). The cells were cultured in a CO2 incubator for 3 hours to allow the luciferase gene to be sufficiently expressed in the cells. Measurement of the activity of luciferase was performed by using a Dual-Glo (TM) luciferase assay system (Promega Corporation) in accordance with an operation manual of the product. For each stimulus condition, the value fLuc/hRluc was calculated by dividing the emission value derived from sea pansy luciferase. The value fLuc/hRluc derived from firefly luciferase and induced by a stimulus of a polysulfide compound was divided by the value fLuc/hRluc for cells without a stimulus of a polysulfide compound to calculate a fold increase, and the fold increase was used as an indicator of intensity of response. • (5) Results

olfactory receptor OR4S2 [2] = target: T1, olfactory receptor OR4S2; experiment: Luciferase reporter gene assay: suppression of OR4S2 response to DMDS or DMTS by test substance (OR4S2 antagonist search); format: cell-based; settings: for response of OR4S2 to DMDS in the presence of test substance (Response %): DMDS 1 mM, test substance 0 to 3000 μM, FIG. 4; for response of OR4S2 to DMTS in the presence of test substance (Fold increase): DMTS 300 μM, test substance 100 μM, FIG. 5
Protocol: By using the same procedure as in Example 1 (1) to (3), HEK293 cells expressing OR4S2 (SEQ ID NO: 1) were prepared. The response of the olfactory receptor to DMDS (the value fLuc/hRluc) was measured in the presence and absence of a test substance by using luciferase reporter gene assay in accordance with the procedure in Example 1 (4). The value fLuc/hRluc induced by a stimulus of single DMDS, (X), the value fLuc/hRluc for cells without a stimulus of DMDS, (Y), and the value fLuc/hRluc induced by a co-stimulus of DMDS and a test substance, (Z), were determined, and the intensity of the response (Response (%)) of the receptor to DMDS in the presence of a test substance was determined by using the following formula.
Response (%)=(Z−Y)/(X−Y)×100
The experiment s performed independently three times, and the average value of the experiments was determined. The concentration of DMDS to be added to a culture was set a 1 mM, and the concentration of a test substance to be added was changed in the range of 0 to 3000 μM.
For the response to DMTS, the value fLuc/hRluc to a stimulus of single DMTS, (X′), was divided by the value fLuc/hRluc for cells without a stimulus of DMTS, (Y), and the calculated value, (X′/Y), was calculated as a value of the response to DMTS Fold increase). To compare the effect of a test substance on the response to DMTS, the value fLuc/hRluc induced by a co-stimulus of DMTS and a test substance, (Z′), was similarly divided by the value fLuc/hRluc for cells without a stimulus, (Y), to calculate (Z′/Y) as Fold increase. The experiment was performed independently three times, and the average value of the experiments was determined. The concentration of DMTS to be added to a culture was set at 300 μM, and the concentration of a test substance to be added set at 100 μM.

[3] = Sensory test of odor-suppressing effect for polysulfide compounds; format: in vivo, human; settings: for odor intensity of DMTS (sensory evaluation): 0.01% (v/v) DMTS and 0.1% (v/v) test substance in mineral oil, 11 evaluators, FIG. 7; for odor intensity of DMDS (sensory evaluation): 0.1% (v/v) DMDS and 0.1% (v/v) test substance in mineral oil, 10 evaluators, FIG. 6
Protocol: The odor-suppressing effect of each of trimethylhexyl aldehyde (THA), cis-4-heptenal, and 1,4-cineol, as the OR4S2 antagonists identified in Example 2, for polysulfide compounds was checked in a sensory test.
For each of DMDS, THA, cis-4-heptenal, and 1,4-cineol, a 0.1% (v/v) solution in mineral oil was prepared. For DMTS, a 0.01% (v/v) solution in mineral oil was prepared. Two cotton balls were put in 20 mL glass bottle (Maruemu Corporation, No. 6), and one cottonball was impregnated with 30 μL of the DMDS or DMTS solution, and the other cotton ball was impregnated with 30 μL of a solution of one of the three OR4S2 antagonists. The glass bottle containing the cotton balls was covered with a lid, and left to stand at 37° C. for 1 hour, and thereafter used as a test sample for a sensory test. Glass bottles containing only cotton ball impregnated with the DMDS or DMTS solution were prepared as reference samples, and a glass bottle containing only cotton ball impregnated with mineral oil (Vehicle) was prepared as a control sample.
A sensory test was performed in a single-blinded mode with 10 evaluators for DMDS and 11evaluators for DMTS. The test was initiated after two o'clock pm, which was 1.5 hours or longer after a meal. To prevent diffusion of a smell, the test was performed essentially under a fume hood. To eliminate the influence of adaptation to odors of polysulfide compounds, the evaluators were appropriately checked for the intensity of recognition to the odor of DMDS or DMTS in the test, and rested as necessary. The evaluators were separated into two groups, and one group evaluated the odor-suppressing effect for DMDS or DMTS with respect to THA, cis-4-heptenal, and 1,4-cineol, in the presented, and the other group evaluated in with respect to 1,4-cineol, cis-4-heptenal, and THA, in the order presented. Each test sample was replaced with another one after evaluation by each of three evaluators.
In evaluation of odors of test samples, the following criteria in five grades were set for each evaluator; “odor of DMDS (or DMTS) was 1: unidentifiable, 2: perceivable, 3: easily identifiable, 4: strong, 5: intolerably strong”, and the evaluators rated the odor intensity of DMDS (or DMTS) for each test sample in nine grades from 1.0 to 5.0 at an interval of 0.5, where the odor intensity of single DMDS (or DMTS) was assumed as 3. The average value of the evaluation results by the evaluators was determined.

Row | Compound | response of OR4S2 to DMDS in the presence of test substance (Response %) (olfactory receptor OR4S2 [2]) | response of OR4S2 to DMTS in the presence of test substance (Fold increase) (olfactory receptor OR4S2 [2]) | odor intensity of DMTS (sensory evaluation) [3] | odor intensity of DMDS (sensory evaluation) [3] | further results
1 | CS [methylmercaptan, Methylmercaptan] |  |  |  |  | response of OR4S2 to methylmercaptan (olfactory receptor OR4S2 [1]; 3 mm test substance, FIG. 3): did not respond
2 | (+)-Limonene oxide | suppressed the response of OR4S2 to DMDS in a concentration-dependent manner | suppressed the response of OR4S2 to DMTS |  |  | 
3 | CSSSC [DMTS, Dimethyl trisulfide] |  |  |  |  | response of olfactory receptor OR4S2 to polysulfide compound (fold increase) (olfactory receptor OR4S2 [1]): exhibits a specific response; response of OR4S2 at different concentrations (olfactory receptor OR4S2 [1]): concentration-dependent manner
4 | CSSC [DMDS, Dimethyl disulfide] |  |  |  |  | response of olfactory receptor OR4S2 to polysulfide compound (fold increase) (olfactory receptor OR4S2 [1]): exhibits a specific response; response of OR4S2 at different concentrations (olfactory receptor OR4S2 [1]): concentration-dependent manner
5 | CC(CC=O)CC(C)(C)C (stereo not drawn) [Trimethylhexyl aldehyde, 3,5,5-Trimethylhexanal] | suppressed the response of OR4S2 to DMDS in a concentration-dependent manner | suppressed the response of OR4S2 to DMTS | suppressed the odor intensity | suppressed the odor intensity | 
6 | CC(C)C12CCC(C)(CC1)O2 [1,4-cineol, 1,4-Cineole] | suppressed the response of OR4S2 to DMDS in a concentration-dependent manner | suppressed the response of OR4S2 to DMTS | suppressed the odor intensity | suppressed the odor intensity | 
7 | CC1=CC=C(C(C)C)CC1 [α-terpinene, p-Mentha-1,3-diene] | suppressed the response of OR4S2 to DMDS in a concentration-dependent manner | suppressed the response of OR4S2 to DMTS |  |  | 
8 | CC/C=C\CCC=O [cis-4-heptenal, (Z)-Hept-4-enal] | suppressed the response of OR4S2 to DMDS in a concentration-dependent manner | suppressed the response of OR4S2 to DMTS | suppressed the odor intensity | suppressed the odor intensity | 
9 | CCCCOC(=O)C(C)CC (stereo not drawn) [butyl 2-methylbutanoate, Butyl 2-methylbutanoate] | suppressed the response of OR4S2 to DMDS in a concentration-dependent manner | suppressed the response of OR4S2 to DMTS |  |  | 
10 | C=C(C)[C@H]1CC=C(C)CC1 [dipentene, Dipentene] | suppressed the response of OR4S2 to DMDS in a concentration-dependent manner |  |  |  | 

Reference: patent US20180186968A1, “AGENT FOR SUPPRESSING ODORS OF POLYSULFIDE COMPOUNDS” (KAO CORPORATION, priority 2015, published 2018)
